Laboratory results taken from the NIST ThermoML archive (doi:10.1021/je201032t).
Numbers after ± are expanded uncertainties.

Assays:
[1] = Liquid, Ebulliometric method (Recirculating still)
[2] = refractive index (Na D-line) (dimensionless); conditions: 293.15 K; 101.33 kPa; Liquid; Standard Abbe refractometry

| vapor or sublimation pressure ([1]; 323 K) [kPa] | vapor or sublimation pressure ([1]; 343.4 K) [kPa] | vapor or sublimation pressure ([1]; 353.2 K) [kPa] | vapor or sublimation pressure ([1]; 363.1 K) [kPa] | vapor or sublimation pressure ([1]; 369.2 K) [kPa] | refractive index [2] | SMILES |
| --- | --- | --- | --- | --- | --- | --- |
| 12.11 ± 1.2 | 32.82 ± 1.2 | 50.82 ± 1.3 | 76.67 ± 1.4 | 96.66 ± 1.4 | 1.382 ± 0.0007 | CCCO [propan-1-ol] |
| 0.12 | 0.46 | 0.73 ± 1.2 | 1.31 ± 1.2 | 1.76 ± 1.2 | 1.4192 ± 0.0007 | CCCCCCCCCCCC [dodecane] |
